Assay results published in ChEMBL document CHEMBL3507680, “University of Dundee, Gates Library screen for HepG2 cell viability”.

Test: Human HepG2 cell viability assay in 384 well format
Assay type: toxicity, cell-based
Parameters: dose 125 nL, time 70.5 hour; concentration not given beside the values
Conditions: HepG2 cells, read-out: Inhibition

Row | SMILES | cytotoxicity at 70.5 h [%]
1 | Cc1cc(SCC(=O)O)nc2nn(CC(F)F)c(C)c12 | -1.44
2 | FC(F)(F)c1ccccc1CN1CCOC[C@H](Oc2cccnc2)C1 | 1.03
3 | CCc1ccc(S(=O)(=O)NCCOc2ccc3nnc(C)n3n2)s1 | -11.7
4 | Cn1c(Cn2ccnc2)nnc1C1CCN(C(=O)c2ccncc2)CC1 | -5.75
5 | Cc1cnn(CC2CN(CC(=O)N(C)Cc3cccs3)CCO2)c1 (stereo unspecified) | -1.56
6 | COCC(=O)NC[C@]12COC[C@H]1CN(Cc1ccc3c(c1)OCO3)C2 | -0.957
7 | Cc1cn2c(=O)c(-c3ccnc(N4CCC[C@@H]4CO)n3)cnc2s1 | -3.36
8 | Cc1ccc(OCCN(C)C2CCOC2=O)cc1 (stereo unspecified) | -5.65
9 | CNC(=O)[C@@H](c1ccccc1)N1CCC[C@H]1C(=O)NC1CCCCC1 | -2.47
10 | CCOc1ncccc1NC(=O)N1CCc2ccccc2C1 | -12
11 | O[C@@H]1C[C@@H](c2nc(-c3ccccc3)no2)N(Cc2cccnc2)C1 | -2.41
12 | CNCc1n[nH]c(=O)n1-c1ccccc1Oc1ccccc1 | 1.39
13 | NC(=O)NCC1CCCCN1Cc1nc(-c2ccco2)no1 (stereo unspecified) | -9.61
14 | O=C(O)C[C@@H]1CCN(C(=O)c2cccs2)C[C@@H]1CCN1CCCCC1 | -3.9
15 | Cc1ccsc1CN1C[C@@H]2COC[C@]2(CNC(=O)c2ccco2)C1 | -6.31
16 | Cc1nc(C)n(C2CCCN(C(=O)c3ccnc(N(C)C)c3)C2)n1 (stereo unspecified) | -3.3
17 | COc1ccc(CNCC2CC2)cc1F | -7.42
18 | O=C(Cc1ccccc1F)NCCN1CCOCC1 | -6.95
19 | CC(SCC(=O)N(C)CC(=O)NC1CC1)c1cc(F)ccc1F (stereo unspecified) | 14.2
20 | O=C1O[C@@H]2CN(Cc3ccccc3)C[C@@H]2N1CCCN1CCOCC1 | -7.7
21 | COc1cc(C)sc1C(=O)N1CCCCC1c1ccccn1 (stereo unspecified) | -16.5

Row | SMILES | cytotoxicity at 70.5 h [%]
22 | CN(Cc1ccco1)[C@@H]1CN(Cc2ccncc2)C[C@@H]2CCCO[C@@H]21 | -13.9
23 | COc1ccc2c(c1)CCCN2Cc1nc2c(cnn2C)c(=O)[nH]1 | -11.4
24 | CNC(=O)N1CC[C@@H]2CN(Cc3cccnc3)S(=O)(=O)[C@@H]2CC1 | -17.6
25 | O=C1CCOCCN1Cc1ccc(Cl)c(F)c1 | 23.1
26 | CCc1cnccc1C(=O)NC1CCN(C(=O)C2CCCCC2)CC1 | -8.95
27 | Cc1ncccc1CNC1CCCN(Cc2noc(C3CC3)n2)C1 (stereo unspecified) | 0.441
28 | CC(C)[C@H](NS(C)(=O)=O)C(=O)NCc1cc(-c2cccc(Cl)c2)nn1C | 6.72
29 | Cc1nc(CN2CCCN(CCOc3cccc(C#N)c3)CC2)no1 | 38.4
30 | CN(C(=O)CCc1ccncc1)C1CCCN(CCc2ccccc2)C1 (stereo unspecified) | -7.17
31 | Cn1cc(CN2Cc3c(cnn3C)C(COCC3CC3)C2)cn1 (stereo unspecified) | 26
32 | COc1ccc2c(c1)OCC(CNC(=O)c1cnc(O)cn1)C2 (stereo unspecified) | -3.99
33 | CC(C)(C)NC(=O)c1ccn(COc2c(Cl)cccc2Cl)n1 | -0.674
34 | COc1ccccc1OCC(=O)NS(=O)(=O)c1ccc(Cl)cc1F | 13.3
35 | Cc1nccn1-c1ccc(NS(=O)(=O)c2cccnc2)cn1 | -1.79
36 | COc1ccc(CS(=O)(=O)CC(=O)NCc2ccccc2F)cc1F | -11.2
37 | CCc1ncc2c(n1)CN(CCCOc1ccc(C#N)cc1)CC2 | -0.432
38 | CC(C)CCn1cc(C(C(=O)O)N2CCSCC2)cn1 (stereo unspecified) | -12.4
39 | O=C(CN1CC(n2cccn2)C1)NCCC1=CCCCC1 | -6.23
40 | CN(C)C(=O)N1CCN(Cc2cnn(C)c2)CC2(CNC(=O)C2)C1 (stereo unspecified) | -7.42
41 | CC(C)c1cc(C(=O)N2CCNCC2C(=O)NCc2ccncc2)on1 (stereo unspecified) | -2.19
42 | Cc1noc(CC2CCN(Cc3ccc(CCC(C)(C)O)cc3)CC2)n1 | -10.5

Row | SMILES | cytotoxicity at 70.5 h [%]
43 | CC(=O)N1N=C(c2ccccc2)OC1C(=O)NCCOc1ccccc1 (stereo unspecified) | -3.08
44 | Cc1ccc(-c2cccc(N3CCC(NC4CCOCC4)CC3)c2)cc1 | -2.04
45 | CSCC(=O)NC1CCN(C(C)c2ccccc2)CC1 (stereo unspecified) | -6.02
46 | CN1CCC(CN(C)S(=O)(=O)CC2CCCCC2)CC1 | 11.1
47 | COCCN1CCN(Cc2ccc(OCc3nccn3C)cc2)CC1 | -14.3
48 | CCN(C(=O)NCCc1ccc(C)cc1C)C(C)CS(C)(=O)=O (stereo unspecified) | -12.9
49 | CCOc1ccc(-c2cc(CCN)ccc2OC)cc1 | -1.62
50 | Cc1ccc(C(=O)N2CCC3(CC2)CCN(Cc2ccccn2)C3=O)o1 | 26.4
51 | CCN(CC1CN(Cc2ncc[nH]2)CCO1)c1cccnn1 (stereo unspecified) | -6.7
52 | Cn1nc(-c2ccccc2NC(=O)c2cncc(Br)c2)ccc1=O | 15.4
53 | COc1cc(N2C[C@H]3CCC[C@@H](CN4CCCC4)[C@H]3C2)ncn1 | -8.91
54 | N#Cc1cc2c(nc1O)CCCCC2 | -2.17
55 | O=C1CC(NS(=O)(=O)c2ccc(Cl)cc2)CN1 (stereo unspecified) | 0.308
56 | CC1CCN(C)c2ccccc2N1C(=O)c1ccc(=O)n(C)n1 (stereo unspecified) | -5.36
57 | CCOC(=O)c1cnn(C2CCN(C(=O)CC3CCCC3)CC2)c1N | -2.45
58 | CC(C)[C@H](NC(=O)Cn1nc2c(cc1=O)CCCC2)C(=O)O | -4.44
59 | CC[C@H]1CN2CC[C@H]1C[C@@H]2CNC(=O)Nc1cccc(C#N)c1 | 13.7
60 | CN1C[C@@H](NC(=O)c2cc(F)cc(F)c2)C[C@H]1C(=O)NCc1ncc[nH]1 | -16.2
61 | CNC(=O)c1cccc(CN2CCC(N(C)Cc3ncc(C)o3)C2)c1 (stereo unspecified) | 22.2
62 | CCC(=O)NC(c1cccnc1)c1cc(C)ccc1C (stereo unspecified) | -12.3
63 | Cc1cccc(S(=O)(=O)NC(=O)CCc2cscn2)c1 | 4.67

Row | SMILES | cytotoxicity at 70.5 h [%]
64 | O=C(CN1CCCCC1Cn1cncn1)NCCc1ccsc1 (stereo unspecified) | 9.35
65 | COCCNC(=O)C1CN(Cc2nccs2)Cc2ccnn2C1 (stereo unspecified) | -6.42
66 | COC1(CNS(=O)(=O)c2ccccc2Br)CCSC1 (stereo unspecified) | -4.04
67 | COc1ccc(C[C@@H]2CC[C@H](CN(C)C3CCN(C)CC3)O2)cc1 | -5.62
68 | CC(C)CN1CCC2(CCN(CC3CC3)CC2)C1=O | -8.5
69 | CC(NC(=O)CSCC#N)c1cccc(Cl)c1 (stereo unspecified) | -9.11
70 | Cc1ccc(C(=O)N2CCO[C@H]3[C@H](OCC4CCOCC4)CC[C@@H]32)o1 | 11.2
71 | Cn1cc(C2CCCN2CCCn2c(=O)oc3ccccc32)cn1 (stereo unspecified) | 12.6
72 | Cc1n[nH]c(C)c1-c1cnc(CC2CCN(C)C2)cn1 (stereo unspecified) | -17.7
73 | CSc1nsc(NC(=O)N(C)Cc2ccc3c(c2)OCO3)n1 | -8.04
74 | Cc1cnn(CCNCC(=O)NCC2(c3ccccc3)CC2)c1 | 31.1
75 | CN(CC(N)=O)S(=O)(=O)c1ccc(F)cc1F | -7.55
76 | Cc1ccc(CNC(=O)N2CCN(Cc3ccsc3)CC2)n1C | 30.9
77 | CCC[C@H]1CN(CCS(C)(=O)=O)C[C@@H]1NC(=O)c1ccn(C)n1 | -4.29
78 | Cc1ccc(-c2ccnc(N(C)CC3CCCO3)n2)c(C)n1 (stereo unspecified) | -6.23
79 | O=C(CN1CCCNC1=O)N1CCCC(c2nccs2)C1 (stereo unspecified) | -8.65
80 | COc1cc(C2CC(=O)Nc3c2nc2n3CCCC2)cc(OC)c1O (stereo unspecified) | -5.3
81 | CC(C)n1ccnc1CN1CCCN(C(=O)c2nccnc2N)CC1 | -16.3
